Assay results taken from patent publication US9006440B2, “Furopyridine derivatives” (Merck Patent GmbH, priority 2010, dated 2015).

How the values were obtained:
[1] = biological target: T1, Syk (Homo sapiens, UniProt P43405); assay: Syk enzyme assay (SYK flash plate assay / Caliper mobility shift); assay type: biochemical
T1 construct: purchased BPS Bioscience, CA, USA
Procedure, shortened: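 Flashplate format: 2.5 nM SYK, 400 nM biotinylated peptide, 10 μM ATP with 33P-ATP, pH 7.5, 1 h at 30 °C; radioactivity read, staurosporine background. Caliper format: 90 min at 25 °C, mobility-shift read of substrate-to-product conversion; IC50 from dose-response curve.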

[2] = biological target: T2, Zap70 (Homo sapiens, UniProt P43403); assay: ZAP-70 enzymatic assay (Caliper LifeSciences technology); assay type: biochemical
T2 construct: purchased BPS Bioscience, CA, USA
T2 sequence (P43403 1-619): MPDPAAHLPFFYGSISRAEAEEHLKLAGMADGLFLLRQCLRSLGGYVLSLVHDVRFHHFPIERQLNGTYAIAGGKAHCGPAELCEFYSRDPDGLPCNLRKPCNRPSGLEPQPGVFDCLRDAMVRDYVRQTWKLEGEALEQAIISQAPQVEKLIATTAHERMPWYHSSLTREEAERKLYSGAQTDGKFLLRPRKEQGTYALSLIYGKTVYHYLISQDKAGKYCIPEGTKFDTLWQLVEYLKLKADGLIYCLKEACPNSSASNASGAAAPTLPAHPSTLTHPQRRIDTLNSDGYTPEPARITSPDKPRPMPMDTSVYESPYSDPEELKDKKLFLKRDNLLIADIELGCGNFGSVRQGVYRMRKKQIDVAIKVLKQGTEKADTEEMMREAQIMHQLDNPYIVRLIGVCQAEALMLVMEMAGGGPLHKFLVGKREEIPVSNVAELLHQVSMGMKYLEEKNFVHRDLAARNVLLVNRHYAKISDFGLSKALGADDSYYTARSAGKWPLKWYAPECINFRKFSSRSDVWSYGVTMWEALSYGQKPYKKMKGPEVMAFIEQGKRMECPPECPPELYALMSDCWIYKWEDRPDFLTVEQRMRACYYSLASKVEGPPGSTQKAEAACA
Method: The assays described here are performed on the Caliper Life Sciences LC3000 system This technology provides data on enzyme activity via measurement of the relative amounts of phosphorylated or unphosphorylated fluorescently labelled substrate peptide at the end of an enzymatic reaction. These different states of peptide are resolved by applying a potential difference across the sample. The presence of the charged phosphate group on the product (as opposed to the substrate) causes a different peptide mobility between the two peptides. This is visualized by excitation of the fluorescent label on the substrate and product peptides and represented as peaks within the analysis software.
In order to measure inhibitor activity of kinase inhibitors on this technology, a TTP Mosquito liquid handling instrument is used to place 0.25 ul of the appropriate concentration of inhibitor in 100% DMSO (for a dose response curve calculation) into each well of a 384-well plate. To this reaction components are added to a final volume of 25 ul. The table below indicates the sequences and concentrations for the assays described in this report. Standard components are 1 mM DTT (Sigma, D0632), 1 mM MgCl2 (Sigma, M1028), 100 mM HEPES pH 7.5 (Calbiochem, 391338), 0.015% Brij-35 (Sigma, B4184).
The reaction is incubated for 90 min at 25 C, and then stopped by the addition of 70 ul of Stop buffer (100 mM HEPES pH 7.5, 0.015% Brij-35, 10 mM EDTA (Sigma, E7889)).
The plate is read on a Caliper LC 3000 in an Off-Chip mobility shift assay format, on a 12-sipper chip. Unphosphorylated substrate and phosphorylated product peptide resolve as separate peaks allowing direct measurement of percentage of conversion of substrate to product. The percent conversion can be plotted against concentration of inhibitor to produce a sigmoidal dose response curve, from which an IC50 can be calculated using GeneData Condoseo or a similar product.

[3] = biological target: T3, KDR (Homo sapiens, UniProt P35968); assay: KDR enzymatic assay (Caliper LifeSciences technology); assay type: biochemical
T3 construct: purchased BPS Bioscience, CA, USA
T3 sequence (P35968 20-1356): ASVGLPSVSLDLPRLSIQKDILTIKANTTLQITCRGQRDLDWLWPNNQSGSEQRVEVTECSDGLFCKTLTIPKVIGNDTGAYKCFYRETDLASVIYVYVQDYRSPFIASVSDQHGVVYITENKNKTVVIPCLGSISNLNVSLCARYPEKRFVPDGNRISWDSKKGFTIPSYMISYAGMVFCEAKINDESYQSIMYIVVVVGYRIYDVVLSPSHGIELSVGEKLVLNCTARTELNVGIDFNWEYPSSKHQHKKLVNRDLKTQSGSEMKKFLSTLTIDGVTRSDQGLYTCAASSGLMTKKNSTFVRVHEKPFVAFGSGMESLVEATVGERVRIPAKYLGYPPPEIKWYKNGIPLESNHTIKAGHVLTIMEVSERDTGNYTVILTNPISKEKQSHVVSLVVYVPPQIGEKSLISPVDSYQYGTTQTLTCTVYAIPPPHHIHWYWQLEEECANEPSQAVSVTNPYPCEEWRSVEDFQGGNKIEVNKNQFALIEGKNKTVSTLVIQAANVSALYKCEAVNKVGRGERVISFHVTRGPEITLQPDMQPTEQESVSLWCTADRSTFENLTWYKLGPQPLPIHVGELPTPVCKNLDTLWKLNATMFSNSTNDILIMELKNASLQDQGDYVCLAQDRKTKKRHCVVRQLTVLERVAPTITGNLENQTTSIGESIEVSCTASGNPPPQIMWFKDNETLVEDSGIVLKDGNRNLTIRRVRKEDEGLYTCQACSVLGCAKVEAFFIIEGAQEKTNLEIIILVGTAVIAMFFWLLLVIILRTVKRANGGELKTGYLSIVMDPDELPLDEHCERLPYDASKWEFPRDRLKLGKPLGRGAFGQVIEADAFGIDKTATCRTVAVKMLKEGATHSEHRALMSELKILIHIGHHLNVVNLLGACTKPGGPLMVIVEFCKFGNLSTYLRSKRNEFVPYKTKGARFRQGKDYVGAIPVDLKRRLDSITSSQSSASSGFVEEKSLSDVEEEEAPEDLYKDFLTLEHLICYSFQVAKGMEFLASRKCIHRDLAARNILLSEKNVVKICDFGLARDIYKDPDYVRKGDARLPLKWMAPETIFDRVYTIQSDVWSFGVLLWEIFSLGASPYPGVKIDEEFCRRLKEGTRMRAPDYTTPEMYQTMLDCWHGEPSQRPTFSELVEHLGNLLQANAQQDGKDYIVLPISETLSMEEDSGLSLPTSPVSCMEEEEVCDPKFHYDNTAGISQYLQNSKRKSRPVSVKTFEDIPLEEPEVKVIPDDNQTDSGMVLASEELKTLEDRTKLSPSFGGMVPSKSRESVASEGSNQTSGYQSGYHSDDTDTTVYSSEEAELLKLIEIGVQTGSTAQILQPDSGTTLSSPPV
Procedure, shortened: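 Off-chip mobility-shift assay measuring conversion of a fluorescently labelled peptide substrate, in 100 mM HEPES pH 7.5, 1 mM DTT, 1 mM MgCl2 and 0.015% Brij-35. Reactions ran 90 min at 25 C and were stopped with EDTA. IC50s were derived from percent-conversion dose-response curves.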

[4] = system: BLNK phosphorylation in Ramos cells; assay: BCR crosslinking-induced BLNK phosphorylation (BLNK cell assay); assay type: cell-based; conditions: Homo sapiens
Method: 1. BCR Crosslinking-Induced BLNK Phosphorylation
Ramos cells incubated overnight in IMDM medium containing 5% FCS were resuspended in IMDM medium without serum (3.3×10^6 cells/ml). 90 μl of cell suspension (300′000 cells) were incubated with 10 μl of SYK inhibitors (in 3% DMSO) for 20 minutes at 37° C., in 96 well plates. After preincubation with inhibitors, cells were activated with 10 μg/ml of goat antihuman anti-IgM for 10 minutes at 37° C. After stimulation, cells were fixed by addition of 80 μl of 4% paraformaldehyde followed by a 10 minutes incubation at RT and […] in 0.1% Triton X-100 in PBS. BLNK phosphorylation was detected by flow cytometry after staining of the cells with anti-BLNK-pY84-PE antibodies from BD pharmingen, for 45 minutes at RT.
BLNK phosphorylation in CD19^+ peripheral blood mononuclear cells (PBMC) isolated from buffy coats of healthy volunteers was performed using the same protocol and staining the cells with a mixture of anti-BLNK-pY84-PE, anti CD-19 PerCp and Anti-IgM APC antibodies from BD Pharmingen.

[5] = system: murine model of RA; conditions: cited from earlier work
[6] = system: RA Phase II studies in humans; conditions: cited from earlier work

SMILES | IC50 [1] | IC50 [2] | IC50 [3] | IC50 [4] | bone erosion [5] | serum cytokine concentrations [5] | clinical scores ([5]; orally available) | efficacy (ACR scores) [6] | tolerability [6]
COc1cc(-c2cc3nccc(-c4ccc5c(c4)NC(=O)C5)c3o2)cc(OC)c1OC [Compound B71, 6-(2-(3,4,5-Trimethoxyphenyl)furo[3,2-b]pyridin-7-yl)indolin-2-one] | < 0.3 µM | 3 to 50 µM | 3 to 50 µM | 3 to 50 µM |  |  |  |  | 
COc1cc(Nc2ncc(F)c(Nc3ccc4c(n3)NC(=O)C(C)(C)O4)n2)cc(OC)c1OC [Compound R406] |  |  |  |  | significantly reduced | significantly reduced | significant improvement | ACR scores improvement | good tolerability
